The structures appear in SMILES notation. Structures can show the parent of a compound that is named as a salt.

A word on the Ki: it is a measure of affinity in units of concentration, obtained from inhibition or displacement.

T1 sequence (P08581 974-1390 limits assumed): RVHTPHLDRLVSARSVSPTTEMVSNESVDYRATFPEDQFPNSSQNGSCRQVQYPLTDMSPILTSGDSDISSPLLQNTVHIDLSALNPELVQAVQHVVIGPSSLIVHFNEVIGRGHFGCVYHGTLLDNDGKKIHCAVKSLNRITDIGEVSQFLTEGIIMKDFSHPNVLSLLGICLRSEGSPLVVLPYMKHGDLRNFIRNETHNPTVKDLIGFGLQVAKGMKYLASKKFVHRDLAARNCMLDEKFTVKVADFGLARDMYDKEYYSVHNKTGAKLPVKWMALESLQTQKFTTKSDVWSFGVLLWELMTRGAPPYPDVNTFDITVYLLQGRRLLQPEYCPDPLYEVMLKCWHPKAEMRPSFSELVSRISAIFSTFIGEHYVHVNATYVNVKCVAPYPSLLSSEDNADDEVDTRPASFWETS

This assay addresses T1, HGFR (Homo sapiens, UniProt P08581).
T1 construct: purchased Upstate 14-526
The assay is described as follows: HGFR continuous-coupled spectrophotometric assay (tyrosine kinase activity on Met-2 substrate peptide). The format is biochemical. As to conditions: HGFR 50 nM, Met-2 peptide 0.5 mM, ATP 300 μM, 37° C., absorbance 340 nm; read-out: Ki.
Regarding `NC(=O)C1CCN(c2cnc3nnn(Cc4ccc5ncccc5c4)c3n2)C1` (centres unmarked) [Example 176, 1-[1-(quinolin-6-yl-methyl)-1H-[1,2,3]tri-azolo[4,5-b]pyra-zin-6-yl]pyrro-lidine-3-carbox-amide], the Ki was determined as 23 nM. On to `CC1(CO)CCN(c2cnc3nnn(Cc4ccc5ncccc5c4)c3n2)CC1` [Example 94, {4-methyl-1-[1-(quino-lin-6-yl-methyl)-1H-[1,2,3]tri-azolo[4,5-b]pyra-zin-6-yl]pipe-ridin-4-yl}methanol], for which the Ki turned out to be 36 nM. With `c1cnc2ccc(Cn3nnc4ncc(N5CCC(CCn6cccn6)CC5)nc43)cc2c1` [Example 92, 6-[(6-{4-[2-(1H-pyra-zol-1-yl)eth-yl]piperidin-1-yl}-1H-[1,2,3]tri-azolo[4,5-b]pyra-zin-1-yl)meth-yl]quinoline], the Ki worked out at 16 nM. With `CC1(C)CN(c2cnc3nnn(Cc4ccc5ncccc5c4)c3n2)C(=O)N1` [Example 190, 4,4-dimethyl-1-[1-(quino-lin-6-yl-methyl)-1H-[1,2,3]tri-azolo[4,5-b]pyra-zin-6-yl]imida-zolidin-2-one], the Ki came to 647 nM. Regarding `CN(Cc1cc(-c2ccccn2)no1)c1cnc2nnn(Cc3ccc4ncccc4c3)c2n1` [Example 93, N-methyl-N-[(3-pyri-din-2-ylisoxa-zol-5-yl)meth-yl]-1-(quino-lin-6-yl-methyl)-1H-[1,2,3]tri-azolo[4,5-b]pyra-zin-6-amine], the Ki is 29 nM.

In the case of `COCCNc1cnc2nnn(Cc3ccc4ncccc4c3)c2n1` [Example 71, N-(2-meth-oxyethyl)-1-(quino-lin-6-yl-methyl)-1H-[1,2,3]tri-azolo[4,5-b]py-rain-6-amine], the inhibition constant (Ki) was 23 nM.

Turning to `COCCn1cc(-c2cnc3nnn(Cc4ccc5ncccc5c4)c3n2)cn1` [Example 6, 6-((6-(1-(2-methoxyethyl)-1H-pyrazol-4-yl)-1H-[1,2,3]triazolo[4,5-b]pyrazin-1-yl)methyl)-quinoline], the Ki stood at 11 nM. With `CC(c1ccc2c(c1)OCCO2)n1nnc2ncc(Br)nc21` (centres unmarked) [Example 54, 6-Bromo-1-[1-(2,3-dihydro-benzo[1,4]dioxin-6-yl)-ethyl]-1H-[1,2,3]tiazolo[4,5-b]pyrazine], the Ki stood at 42 nM. As to `C[C@H]1CN(c2cnc3nnn(Cc4ccc5ncccc5c4)c3n2)C[C@]1(C)CO` [Example 107, {(3R,4R)-3,4-di-methyl-1-[1-(quino-lin-6-yl-methyl)-1H-[1,2,3]tri-azolo[4,5-b]pyra-zin-6-yl]pyrro-lidin-3-yl}meth-anol], the Ki came to 47 nM. Then `c1cnc2ccc(Cn3nnc4ncc(N5CC[C@@H](N6CCOCC6)C5)nc43)cc2c1` [Example 206, 6-({6-[(3R)-3-morpho-lin-4-ylpyrro-lidin-1-yl]-1H-[1,2,3]tri-azolo[4,5-b]pyra-zin-1-yl}meth-yl)quinoline. TFA salt], with 22 nM; and `C[C@H]1COCCN1c1cnc2nnn(Cc3ccc4ncccc4c3)c2n1` [Example 199, 6-({6-[(3S)-3-methyl-morpholin-4-yl]-1H-[123]tri-azolo[45-b]pyra-zin-1-yl}methyl)quinoline], with 138 nM; and `CC(O)Cn1cc(-c2cnc3nnn(Cc4ccc5ncccc5c4)c3n2)cn1` (centres unmarked) [Example 59, 1-[4-(3-Quinolin-6-ylmethyl-3H-[1,2,3]triazolo[4,5-b]pyrazin-5-yl)-pyrazol-1-yl]-propan-2-ol], with 11 nM. For `NCc1ccc(-c2cnc3nnn(Cc4ccc5ncccc5c4)c3n2)cc1` [Example 38, (4-(3-(quinolin-6-ylmethyl)-3H-[1,2,3]triazolo[4,5-b]pyrazin-5-yl)phenyl)methanamine], the Ki turned out to be 3 nM. `Cc1n[nH]c(C)c1-c1cnc2nnn(Cc3ccc4ncccc4c3)c2n1` [Example 63, 6-[6-(3,5-Dimethyl-1H-pyrazol-4-yl)-[1,2,3]triazolo[4,5-b]pyrazin-1-ylmethyl]-quinoline]: the Ki turned out to be 22 nM. Take `CCc1cnc2nnn(Cc3ccc4ncccc4c3)c2n1` [Example 52, 6-(6-Ethyl-[1,2,3]triazolo[4,5-b]pyrazin-1-ylmethyl)-quinoline]: the Ki was found to be 88 nM. On to `C[C@H](O)CNc1cnc2nnn(Cc3cc4cccnc4cc3F)c2n1` [Example 173, (2)-1-({1-[(7-fluoro-quinolin-6-yl)meth-yl]-1H-[1,2,3]tri-azolo[4,5-b]pyra-zin-6-yl}ami-no)propan-2-ol], for which the Ki worked out at 4 nM.

Consider `O=C1CN(c2cnc3nnn(Cc4ccc5ncccc5c4)c3n2)CCN1` [Example 83, 4-[1-(quinolin-6-yl-methyl)-1H-[1,2,3]tri-azolo[4,5-b]py-razin-6-yl]pipe-razin-2-one], for which the Ki is 34 nM. `CC1(CO)CCCN(c2cnc3nnn(Cc4ccc5ncccc5c4)c3n2)C1` (centres unmarked) [Example 90, {3-methyl-1-[1-(quino-lin-6-yl-methyl)-1H-[1,2,3]tri-azolo[4,5-b]pyra-zin-6-yl]pipe-ridin-3-yl}methanol]: the Ki was 39 nM.

Take `N#CC1CCN(C2CCN(c3cnc4nnn(Cc5ccc6ncccc6c5)c4n3)C2)CC1` (stereo in doubt) [Example 148, 1-{(3R)-1-[1-(quino-lin-6-yl-methyl)-1H-[1,2,3]tri-azolo[4,5-b]pyra-zin-6-yl]pyrro-lidin-3-yl}pipe-ridine-4-carbo-nitrile]: the Ki was 30 nM.

As to `Cc1cnc2nnn(C(C)c3ccc4c(c3)OCCO4)c2n1` (centres unmarked) [Example 180, 1-[1-(3,4-Dihydro-benzo[1,4]dioxin-6-yl)-eth-yl]-6-meth-yl-1H-[1,2,3]tri-azolo[4,5-b]pyrazine], the Ki was 412 nM. With `OCc1cccc(-c2cnc3nnn(Cc4ccc5ncccc5c4)c3n2)c1` [Example 37, (3-(3-(quinolin-6-ylmethyl)-3H-[1,2,3]triazolo[4,5-b]pyrazin-5-yl)phenyl)methanol], the Ki was 4 nM. Consider `COC(=O)C(C)(C)n1cc(-c2cnc3nnn(Cc4ccc5ncccc5c4)c3n2)cn1` [Example 65, 2-Methyl-2-[4-(3-quinolin-6-ylmethyl-3H-[1,2,3]triazolo[4,5-b]pyrazin-5-yl)-pyrazol-1-yl]-propionic acid methyl ester], for which the inhibitory constant (Ki) was determined as 47 nM. For `CC(C)(O)c1cnc2nnn(Cc3ccc4ncccc4c3)c2n1` [Example 182, 2-(3-Quinolin-6-yl-methyl-3H-[1,2,3]tri-azolo[4,5-b]pyra-zin-5-yl)-pro-pan-2-ol], the Ki came out at 857 nM. Regarding `CN(C)CCN(C)C(=O)c1ccc(-c2cnc3nnn(Cc4ccc5ncccc5c4)c3n2)cc1` [Example 12, N-(2-(dimethylamino)ethyl)-N-methyl-4-(3-(quinolin-6-ylmethyl)-3H-[1,2,3]triazolo[4,5-b]pyrazin-5-yl)benzamide], the Ki was 38 nM. Consider `O=C(O)c1ccc(-c2cnc3nnn(Cc4ccc5ncccc5c4)c3n2)cc1Cl` [Example 39, 2-chloro-4-(3-(quinolin-6-ylmethyl)-3H-[1,2,3]triazolo[4,5-b]pyrazin-5-yl)benzoic acid], for which the Ki is 21 nM.

Take `CC(C)(C)OC(=O)N[C@H]1CCCN(c2cnc3nnn(Cc4ccc5ncccc5c4)c3n2)C1` [Example 203, (S)-tert-butyl 1-(3-(quino-lin-6-yl-methyl)-3H-[1,2,3]tri-azolo[4,5-b]pyra-zin-5-yl)pipe-ridin-3-ylcarbamate]: the Ki turned out to be 570 nM.

Source of the values: US7732604B2, “Triazolopyrazine derivatives” (Pfizer Inc., priority 2006, dated 2010).
